Test results reported in US12281122B1, “PI3K inhibitors” (Cogent Biosciences, Inc., priority 2023, dated 2025).

Experiments:
[1] = tested on: SKBR3 (PI3Kα-Wild Type) cell line; experiment: HTRF phospho-AKT(S473) cell assay in SKBR3 cells; format: cell-based, human
In short: (§1)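 T47D: RPMI + 10% FBS + 0.2 units/mL insulin, top 5 μM. SKBR3: McCoy's 5A + 10% FBS, top 10 μM, 70 ng/ml PDGF-BB last 15 min. Both: 12-pt 1:3, 2 h, 37° C, max 0.5% DMSO; HTRF pAKT(S473); IC50.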

[2] = tested on: T47D (PI3Kα-H1047R) cell line; experiment: HTRF phospho-AKT(S473) cell assay in T47D cells; format: cell-based, human
In short: as §1

[3] = Homo sapiens, SK-BR-3; SKBR3 (PI3Kα-Wild Type) cells, HTRF phospho-AKT(S473), 2 hours compound incubation, PDGF-BB stimulated
[4] = Homo sapiens; T47D (PI3Kα-H1047R) cells, HTRF phospho-AKT(S473), 2 hours compound incubation
[5] = Homo sapiens, SK-BR-3; HTRF phospho-AKT(S473), SKBR3 (PI3Kα-Wild Type) cells, 2 hours compound incubation, PDGF-BB stimulated
[6] = Homo sapiens; HTRF phospho-AKT(S473), T47D (PI3Kα-H1047R) cells, 2 hours compound incubation

Cc1cc([C@@H](C)Nc2ccc(Cl)nc2C(=O)NS(C)(=O)=O)c2nc(N3C[C@@H]4C[C@H]3CN4c3cnn(C)c3)n(C)c(=O)c2c1 [Compound 201, 6-chloro-3-(((R)-1-(3,6-dimethyl-2-((1S,4S)-5-(1-methyl-1H-pyrazol-4-yl)-2,5-diazabicyclo[2.2.1]heptan-2-yl)-4-oxo-3,4-dihydroquinazolin-8-yl)ethyl)amino)-N-(methylsulfonyl) picolinamide]
IC50 [1, 3]: 1000 to 5000 nM | IC50 [2, 4]: < 250 nM

Cc1cc([C@@H](C)Nc2ccc(Cl)nc2C(=O)NS(C)(=O)=O)c2nc(N3CCN(c4ccc(C#N)cn4)[C@@H](C)C3)n(C)c(=O)c2c1 [Compound 196, 6-chloro-3-(((R)-1-(2-((S)-4-(5-cyanopyridin-2-yl)-3-methylpiperazin-1-yl)-3,6-dimethyl-4-oxo-3,4-dihydroquinazolin-8-yl)ethyl)amino)-N-(methylsulfonyl) picolinamide]
IC50 [1, 3]: 1000 to 5000 nM | IC50 [2, 4]: < 250 nM

Cc1cc([C@@H](C)Nc2ccc(Cl)nc2C(=O)NS(C)(=O)=O)c2nc(N3CC[C@@H](c4ccccc4)C3)n(C)c(=O)c2c1 [Compound 687, 6-chloro-3-(((R)-1-(3,6-dimethyl-4-oxo-2-((S)-3-phenylpyrrolidin-1-yl)-3,4-dihydroquinazolin-8-yl)ethyl)amino)-N-(methylsulfonyl) picolinamide]
IC50 [1, 5]: ≥ 5000 nM | IC50 [2, 6]: 250 to 500 nM

COc1nc(C2CCN(c3nc4c([C@@H](C)Nc5ccc(Cl)nc5C(=O)NS(C)(=O)=O)cc(C)cc4c(=O)n3C)CC2)ncc1C [Compound 562, (R)-6-chloro-3-((1-(2-(4-(4-methoxy-5-methylpyrimidin-2-yl)piperidin-1-yl)-3,6-dimethyl-4-oxo-3,4-dihydroquinazolin-8-yl)ethyl)amino)-N-(methylsulfonyl) picolinamide]
IC50 [1, 5]: ≥ 5000 nM | IC50 [2, 6]: 250 to 500 nM

Cc1cc([C@@H](C)Nc2ccc(Cl)nc2C(=O)NS(C)(=O)=O)c2nc(N3CCc4nn(CC(F)(F)F)cc4C3)n(C)c(=O)c2c1 [Compound 220, (R)-6-chloro-3-((1-(3,6-dimethyl-4-oxo-2-(2-(2,2,2-trifluoroethyl)-2,4,6,7-tetrahydro-5H-pyrazolo[4,3-c]pyridin-5-yl)-3,4-dihydroquinazolin-8-yl)ethyl)amino)-N-(methylsulfonyl) picolinamide]
IC50 [1, 3]: 1000 to 5000 nM | IC50 [2, 4]: < 250 nM

Cc1cc([C@@H](C)Nc2ccc(Cl)nc2C(=O)NS(C)(=O)=O)c2nc(N3CCC(n4cc(C)nn4)CC3)n(C)c(=O)c2c1 [Compound 716, (R)-6-chloro-3-((1-(3,6-dimethyl-2-(4-(4-methyl-1H-1,2,3-triazol-1-yl)piperidin-1-yl)-4-oxo-3,4-dihydroquinazolin-8-yl)ethyl)amino)-N-(methylsulfonyl) picolinamide]
IC50 [1, 5]: 1000 to 5000 nM | IC50 [2, 6]: < 250 nM

Cc1cc([C@@H](C)Nc2ccc(Cl)nc2C(=O)NS(C)(=O)=O)c2nc(N3CCc4cn(CC(F)(F)F)nc4C3)n(C)c(=O)c2c1 [Compound 214, (R)-6-chloro-3-((1-(3,6-dimethyl-4-oxo-2-(2-(2,2,2-trifluoroethyl)-2,4,5,7-tetrahydro-6H-pyrazolo[3,4-c]pyridin-6-yl)-3,4-dihydroquinazolin-8-yl)ethyl)amino)-N-(methylsulfonyl) picolinamide]
IC50 [1, 3]: 1000 to 5000 nM | IC50 [2, 4]: < 250 nM

Cc1cc([C@@H](C)Nc2ccc(Cl)nc2C(=O)NS(C)(=O)=O)c2nc(N3CCC(n4cc(C(F)(F)F)cn4)CC3)n(C)c(=O)c2c1 [Compound 681, (R)-6-chloro-3-((1-(3,6-dimethyl-4-oxo-2-(4-(4-(trifluoromethyl)-1H-pyrazol-1-yl)piperidin-1-yl)-3,4-dihydroquinazolin-8-yl)ethyl)amino)-N-(methylsulfonyl) picolinamide]
IC50 [1, 5]: ≥ 5000 nM | IC50 [2, 6]: 250 to 500 nM

Cc1cc([C@@H](C)Nc2ccc(Cl)nc2C(=O)NS(C)(=O)=O)c2nc(N3C[C@@H]4[C@H](C3)[C@H]4c3ccc(C)nn3)n(C)c(=O)c2c1 [Compound 441, 6-chloro-3-(((R)-1-(3,6-dimethyl-2-((1R,5S,6R)-6-(6-methylpyridazin-3-yl)-3-azabicyclo [3.1.0]hexan-3-yl)-4-oxo-3,4-dihydroquinazolin-8-yl)ethyl)amino)-N-(methylsulfonyl) picolinamide]
IC50 [1, 5]: 1000 to 5000 nM | IC50 [2, 6]: < 250 nM

CC(=O)N1CCN(c2ccc(-c3nc4c([C@@H](C)Nc5ccc(Cl)nc5C(=O)NS(C)(=O)=O)cc(C)cc4c(=O)n3C)cn2)CC1 [Compound 175, (R)-3-((1-(2-(6-(4-acetylpiperazin-1-yl)pyridin-3-yl)-3,6-dimethyl-4-oxo-3,4-dihydroquinazolin-8-yl)ethyl)amino)-6-chloro-N-(methylsulfonyl) picolinamide]
IC50 [1, 3]: 1000 to 5000 nM | IC50 [2, 4]: < 250 nM

Cc1cc([C@@H](C)Nc2ccc(Cl)nc2C(=O)NS(C)(=O)=O)c2nc(N3C[C@@H]4[C@H](C3)[C@H]4c3cc(C)n(C)n3)n(C)c(=O)c2c1 [Compound 435, 6-chloro-3-(((R)-1-(2-((1R,5S,6R)-6-(1,5-dimethyl-1H-pyrazol-3-yl)-3-azabicyclo[3.1.0]hexan-3-yl)-3,6-dimethyl-4-oxo-3,4-dihydroquinazolin-8-yl)ethyl)amino)-N-(methylsulfonyl) picolinamide]
IC50 [1, 3]: 1000 to 5000 nM | IC50 [2, 4]: < 250 nM

CC(=O)N1CCC2(CC1)CCN(c1nc3c([C@@H](C)Nc4ccc(Cl)nc4C(=O)NS(C)(=O)=O)cc(C)cc3c(=O)n1C)CC2 [Compound 280, (R)-3-((1-(2-(9-acetyl-3,9-diazaspiro[5.5]undecan-3-yl)-3,6-dimethyl-4-oxo-3,4-dihydroquinazolin-8-yl)ethyl)amino)-6-chloro-N-(methylsulfonyl) picolinamide]
IC50 [1, 3]: 1000 to 5000 nM | IC50 [2, 4]: < 250 nM

Cc1cc([C@@H](C)Nc2ccc(Cl)nc2C(=O)NS(C)(=O)=O)c2nc(-c3ccc(Nc4ccn(C)n4)nc3)n(C)c(=O)c2c1 [Compound 339, (R)-6-chloro-3-((1-(3,6-dimethyl-2-(6-((1-methyl-1H-pyrazol-3-yl)amino)pyridin-3-yl)-4-oxo-3,4-dihydroquinazolin-8-yl)ethyl)amino)-N-(methylsulfonyl) picolinamide]
IC50 [1, 3]: 1000 to 5000 nM | IC50 [2, 4]: < 250 nM

Cc1cc([C@@H](C)Nc2ccc(Cl)nc2C(=O)NS(C)(=O)=O)c2nc(N3C[C@@H]4[C@H](C3)[C@H]4c3nn(C)cc3F)n(C3CC3)c(=O)c2c1 [Compound 466, 6-chloro-3-(((R)-1-(3-cyclopropyl-2-((1R,5S,6R)-6-(4-fluoro-1-methyl-1H-pyrazol-3-yl)-3-azabicyclo[3.1.0]hexan-3-yl)-6-methyl-4-oxo-3,4-dihydroquinazolin-8-yl)ethyl)amino)-N-(methylsulfonyl) picolinamide]
IC50 [1, 5]: ≥ 5000 nM | IC50 [2, 6]: 250 to 500 nM

Cc1cc([C@@H](C)Nc2ccc(Cl)nc2C(=O)NS(C)(=O)=O)c2nc(N3CCc4oncc4C3)n(C)c(=O)c2c1 [Compound 276, (R)-6-chloro-3-((1-(2-(6,7-dihydroisoxazolo[4,5-c]pyridin-5(4H)-yl)-3,6-dimethyl-4-oxo-3,4-dihydroquinazolin-8-yl)ethyl)amino)-N-(methylsulfonyl) picolinamide]
IC50 [1, 3]: 1000 to 5000 nM | IC50 [2, 4]: < 250 nM

Cc1cc([C@@H](C)Nc2ccc(Cl)nc2C(=O)NS(C)(=O)=O)c2nc(N3C[C@@H]4[C@H](C3)[C@H]4c3cc4ncccn4n3)n(C)c(=O)c2c1 [Compound 508, 6-chloro-3-(((R)-1-(3,6-dimethyl-4-oxo-2-((1R,5S,6R)-6-(pyrazolo[1,5-a]pyrimidin-2-yl)-3-azabicyclo[3.1.0]hexan-3-yl)-3,4-dihydroquinazolin-8-yl)ethyl)amino)-N-(methylsulfonyl) picolinamide]
IC50 [1, 5]: 1000 to 5000 nM | IC50 [2, 6]: < 250 nM

Cc1cc([C@@H](C)Nc2ccc(Cl)nc2C(=O)NS(C)(=O)=O)c2nc(N3CC[C@H](Nc4ncccn4)C3)n(C)c(=O)c2c1 [Compound 540, 6-chloro-3-(((R)-1-(3,6-dimethyl-4-oxo-2-((S)-3-(pyrimidin-2-ylamino)pyrrolidin-1-yl)-3,4-dihydroquinazolin-8-yl)ethyl)amino)-N-(methylsulfonyl) picolinamide]
IC50 [1, 5]: ≥ 5000 nM | IC50 [2, 6]: 250 to 500 nM

Cc1cc([C@@H](C)Nc2ccc(Cl)nc2C(=O)NS(C)(=O)=O)c2nc(N3CCC4(CCN(c5ccn(C)n5)CC4)CC3)n(C)c(=O)c2c1 [Compound 361, (R)-6-chloro-3-((1-(3,6-dimethyl-2-(9-(1-methyl-1H-pyrazol-3-yl)-3,9-diazaspiro[5.5]undecan-3-yl)-4-oxo-3,4-dihydroquinazolin-8-yl)ethyl)amino)-N-(methylsulfonyl) picolinamide]
IC50 [1, 3]: ≥ 5000 nM | IC50 [2, 4]: 250 to 500 nM

Cc1cc([C@@H](C)Nc2ccc(Cl)nc2C(=O)NS(C)(=O)=O)c2nc(N3C[C@@H]4[C@H](C3)[C@H]4c3nn(C)cc3F)n(C)c(=O)c2c1 [Compound 391, 6-chloro-3-(((R)-1-(2-((1R,5S,6R)-6-(4-fluoro-1-methyl-1H-pyrazol-3-yl)-3-azabicyclo[3.1.0]hexan-3-yl)-3,6-dimethyl-4-oxo-3,4-dihydroquinazolin-8-yl)ethyl)amino)-N-(methylsulfonyl) picolinamide]
IC50 [1, 3]: 1000 to 5000 nM | IC50 [2, 4]: 250 to 500 nM

Cc1cc([C@@H](C)Nc2ccc(Cl)nc2C(=O)NS(C)(=O)=O)c2nc(-c3ccc4nn(CC5CC5)cc4c3)n(C)c(=O)c2c1 [Compound 795, (R)-6-chloro-3-((1-(2-(2-(cyclopropylmethyl)-2H-indazol-5-yl)-3,6-dimethyl-4-oxo-3,4-dihydroquinazolin-8-yl)ethyl)amino)-N-(methylsulfonyl) picolinamide]
IC50 [1, 5]: 1000 to 5000 nM | IC50 [2, 6]: < 250 nM
